Data set [1] is classed as physicochemical. The protocol: Determination of logD7.4. The log of distribution coefficients at pH 7.4 was determined in octanol-phosphate-buffered saline (PBS) using the miniaturized shake flask setup described previously.^36, 47 Briefly, 150 mL each of octanol and PBS pH 7.4 were stirred vigorously for 12-16 h. The layers were allowed to stand for at least 24 h for phase separation. The separated layers were collected and served as PBS saturated with octanol (PBS*) and octanol saturated with PBS (octanol*). Stock solutions (1 mM or 5 mM) of ligands were prepared in DMSO and diluted in PBS* to obtain 1 μM or 10 μM (3-5 mL) of the standard (std). This standard was used to prepare appropriate dilutions using octanol*, in triplicate, in 2-mL glass vials. The leftover standard was used to determine the standard concentration (Cstd). The vials were vortexed for 1 min and shaken horizontally at 700 rpm for 2 h. The vials were then shaken upright at 150 rpm for 2 h to allow the phases to separate. The octanol* layer was pipetted out, and the PBS* layer was used for further analyses. The concentrations of ligands in the standard and PBS* (CPBS*) were determined via fluorescence measurements of 200 μL of PBS* or std in 96-well plates on the Cytation 5 Multimode Plate Reader (BioTek). For Si-rhodamine containing ligands, 2-20 μL of trifluoroacetic acid was added to each well of the 96-well plate prior to the fluorescence measurements. Reported values are averages of at least two measurements. The logD7.4 was obtained as described previously using equation 2:
[formula] • where Cstd is the standard concentration in PBS, CPBS* is the concentration in PBS after partitioning, r is the dilution factor of the standard solution, VPBS* is the volume of PBS used in the partitioning, and Voctanol* is the volume of octanol used in the partitioning.

Data set [2] can be described thus: 1-Photon spectroscopy and quantum yield of HaloTag® ligands. It counts as physicochemical. The conditions noted are these: free ligand, 10 mM HEPES pH 7.3. The protocol:
1-Photon spectroscopy of HaloTag® ligands and HaloTag® conjugates. […] All measurements were taken at ambient temperature (22 ±2° C.). Absorption spectra were recorded on a Cary Model 100 spectrometer (Agilent) using 1-cm path length 1.0-mL quartz microcuvettes from Starna Cells. Fluorescence spectra were recorded on a Cary Eclipse fluorometer (Varian) using 1-cm path length 3.5-mL quartz cuvettes (Starna Cells). As before,^13, 23, 32, 45 HaloTag® protein was used as a 100 μM solution in 1×TBS. HaloTag® ligands 12-15 (5 μM) were dissolved in 10 mM HEPES, pH 7.3, containing 0.1 mg/mL CHAPS. An aliquot of HaloTag® protein (1.5 equiv) was added, and the resulting mixture was incubated until a consistent absorbance signal was observed (60-120 min). To measure the fold-increase of absorbance upon HaloTag® binding, a “no HaloTag®” control experiment was performed where an equivalent volume of TBS blank was added in place of the protein. Reported values for extinction coefficient (ε) are averages of at least two measurements.
Quantum yield determination. All reported absolute fluorescence quantum yield values (Φf) were measured in the laboratory under identical conditions using a Quantaurus-QY spectrometer (model C11374, Hamamatsu). This instrument uses an integrating sphere to determine photons absorbed and emitted by a sample. Measurements were performed using dilute samples (absorbance<0.1), and self-absorption corrections were performed using the instrument software.^46 Reported values are averages of at least two measurements.

The results in this text go back to patent US20240239818A1, “COMPOUNDS AND COMPOSITIONS COMPRISING FLUOROPHORES FOR USE IN VISUALIZATION AND PURIFICATION OR MANIPULATION” (priority 2022, published 2024).

Where two headings read alike, the source gives them in different places.

With `C[Si]1(C)c2cc(N3CC(F)C3)ccc2C2(OC(=O)c3ccc(C(=O)NCCOCCOCCCCCCCl)cc32)c2ccc(N3CC(F)C3)cc21` [5HTL, JF635-HaloTag® ligand, reference compound], the logD7.4 in data set [1] (octanol-PBS pH 7.4) is listed as 3.82.
On to `C[Si]1(C)C2=CC(=[N+]3CC(C(=O)NCCOCCOCCNC(=O)CCCC[C@@H]4SC[C@@H]5NC(=O)N[C@@H]54)C3)C=CC2=C(c2cc(C(=O)NCCOCCOCCCCCCCl)ccc2C(=O)[O-])c2ccc(N3CCC3)cc21` (stereo partly shown) [compound 14, Biotin-JF646-HaloTag® ligand], for which, in data set [2], the “extinction coefficient (ε)” value is recorded as 34,000 M^−1cm^−1, the “fluorescence quantum yield (Φf)” value came to 0.56, the λabs turned out to be 647 nm and the λem is 666 nm. In data set [1] (octanol-PBS pH 7.4), the logD7.4 was found to be 3.06.
For `C[Si]1(C)C2=CC(=[N+]3CC(F)(C(=O)NCCOCCOCCNC(=O)CCCC[C@@H]4SC[C@@H]5NC(=O)N[C@@H]54)C3)C=CC2=C(c2cc(C(=O)NCCOCCOCCCCCCCl)ccc2C(=O)[O-])c2ccc(N3CC(F)C3)cc21` (stereo partly shown) [compound 15, Biotin-JF635-HaloTag® ligand], in that order: 2,900 M^−1cm^−1, 0.60, 636 nm, 655 nm and 3.6.
For the compound “Biotin-JF549-HaloTag® ligand [compound 12]”, in data set [2], the “extinction coefficient (ε)” value was 92,000 M^−1cm^−1, the “fluorescence quantum yield (Φf)” value is recorded as 0.90, the λabs was 552 nm and the λem is listed as 575 nm. Also, in data set [1] (pH 7.4), the logD7.4 was found to be 0.07.
